Format in all cases: functional
The target in assay [1] is Dual specificity tyrosine-phosphorylation-regulated kinase 1A (Homo sapiens, UniProt Q13627).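 Note: measured against DYRK1A as one member of a broad kinome profiling panel.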
The target of assay [2] is Casein kinase I isoform alpha (Homo sapiens, UniProt P48729).
Assay [3] addresses Glycogen synthase kinase-3 alpha (Homo sapiens, UniProt P49840).
In assay [4] the target is BDNF/NT-3 growth factors receptor (Homo sapiens, UniProt Q16620).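 Note: NTRK2 measured as one member of a broad kinome-wide kinase profiling panel.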
Assay [5] addresses Inhibitor of nuclear factor kappa-B kinase subunit epsilon (Homo sapiens, UniProt Q14164). In words: Navigating the Kinome. Panel member name: IKBKE.
Assay [6] deals with Calcium/calmodulin-dependent protein kinase type II subunit alpha (Homo sapiens, UniProt Q9UQM7). In words: Navigating the Kinome. Panel member name: CAMK2A.
The target in assay [7] is ALK tyrosine kinase receptor (Homo sapiens, UniProt Q9UM73).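 Note: ALK tested as one member of a kinase panel screen.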
Assay [8] deals with Dual specificity mitogen-activated protein kinase kinase 1 (Homo sapiens, UniProt Q02750). In words: Navigating the Kinome. Panel member name: MAP2K1.
The target in assay [9] is Ribosomal protein S6 kinase alpha-3 (Homo sapiens, UniProt P51812).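 Note: measured within a kinome-wide profiling panel.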
The target in assay [10] is Leukocyte tyrosine kinase receptor (Homo sapiens, UniProt P29376). The assay is described as follows: Navigating the Kinome. Panel member name: LTK.
Assay [11] deals with G protein-coupled receptor kinase 5 (Homo sapiens, UniProt P34947). In words: Navigating the Kinome. Panel member name: GPRK5.
The target of assay [12] is Tyrosine-protein kinase receptor TYRO3 (Homo sapiens, UniProt Q06418).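 Note: TYRO3 value obtained as one member of a kinome-wide profiling panel.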
In assay [13] the target is cAMP-dependent protein kinase catalytic subunit PRKX (Homo sapiens, UniProt P51817).
The target of assay [14] is Leucine-rich repeat serine/threonine-protein kinase 2 (Homo sapiens, UniProt Q5S007).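 Note: value from a broad kinome-wide panel profiling study in which LRRK2 was one of the kinases tested.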
The target in the next assay is Activated CDC42 kinase 1 (Homo sapiens, UniProt Q07912). The assay is described as follows: Navigating the Kinome. Panel member name: ACK1.
The target of assay [15] is Tyrosine-protein kinase Lck (Homo sapiens, UniProt P06239).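 Note: lck was assayed as one member of a kinase panel.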
The target of assay [16] is Dual specificity mitogen-activated protein kinase kinase 2 (Homo sapiens, UniProt P36507). The assay is described as follows: Navigating the Kinome. Panel member name: MAP2K2.
Assay [17] has as its target Cyclin-dependent kinase 9 (Homo sapiens, UniProt P50750).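 Note: value from the CDK9 entry of a kinome-spanning kinase panel.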
In assay [18] the target is Tyrosine-protein kinase JAK3 (Homo sapiens, UniProt P52333).
The target of assay [19] is Glycogen synthase kinase-3 beta (Homo sapiens, UniProt P49841).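 Note: value comes from a broad kinome profiling panel, with GSK3B as the panel member.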
The target of assay [20] is Fibroblast growth factor receptor 1 (Homo sapiens, UniProt P11362).
In assay [21] the target is Serine/threonine-protein kinase pim-1 (Homo sapiens, UniProt P11309).
Assay [22] deals with Platelet-derived growth factor receptor alpha (Homo sapiens, UniProt P16234). The assay is described as follows: Navigating the Kinome. Panel member name: PDGFRA.
Assay [23] deals with Serine/threonine-protein kinase TBK1 (Homo sapiens, UniProt Q9UHD2). The assay is described as follows: Navigating the Kinome. Panel member name: TBK1.

The source made the active and inactive calls.

Sequence of Leucine-rich repeat serine/threonine-protein kinase 2 (Q5S007 whole entry): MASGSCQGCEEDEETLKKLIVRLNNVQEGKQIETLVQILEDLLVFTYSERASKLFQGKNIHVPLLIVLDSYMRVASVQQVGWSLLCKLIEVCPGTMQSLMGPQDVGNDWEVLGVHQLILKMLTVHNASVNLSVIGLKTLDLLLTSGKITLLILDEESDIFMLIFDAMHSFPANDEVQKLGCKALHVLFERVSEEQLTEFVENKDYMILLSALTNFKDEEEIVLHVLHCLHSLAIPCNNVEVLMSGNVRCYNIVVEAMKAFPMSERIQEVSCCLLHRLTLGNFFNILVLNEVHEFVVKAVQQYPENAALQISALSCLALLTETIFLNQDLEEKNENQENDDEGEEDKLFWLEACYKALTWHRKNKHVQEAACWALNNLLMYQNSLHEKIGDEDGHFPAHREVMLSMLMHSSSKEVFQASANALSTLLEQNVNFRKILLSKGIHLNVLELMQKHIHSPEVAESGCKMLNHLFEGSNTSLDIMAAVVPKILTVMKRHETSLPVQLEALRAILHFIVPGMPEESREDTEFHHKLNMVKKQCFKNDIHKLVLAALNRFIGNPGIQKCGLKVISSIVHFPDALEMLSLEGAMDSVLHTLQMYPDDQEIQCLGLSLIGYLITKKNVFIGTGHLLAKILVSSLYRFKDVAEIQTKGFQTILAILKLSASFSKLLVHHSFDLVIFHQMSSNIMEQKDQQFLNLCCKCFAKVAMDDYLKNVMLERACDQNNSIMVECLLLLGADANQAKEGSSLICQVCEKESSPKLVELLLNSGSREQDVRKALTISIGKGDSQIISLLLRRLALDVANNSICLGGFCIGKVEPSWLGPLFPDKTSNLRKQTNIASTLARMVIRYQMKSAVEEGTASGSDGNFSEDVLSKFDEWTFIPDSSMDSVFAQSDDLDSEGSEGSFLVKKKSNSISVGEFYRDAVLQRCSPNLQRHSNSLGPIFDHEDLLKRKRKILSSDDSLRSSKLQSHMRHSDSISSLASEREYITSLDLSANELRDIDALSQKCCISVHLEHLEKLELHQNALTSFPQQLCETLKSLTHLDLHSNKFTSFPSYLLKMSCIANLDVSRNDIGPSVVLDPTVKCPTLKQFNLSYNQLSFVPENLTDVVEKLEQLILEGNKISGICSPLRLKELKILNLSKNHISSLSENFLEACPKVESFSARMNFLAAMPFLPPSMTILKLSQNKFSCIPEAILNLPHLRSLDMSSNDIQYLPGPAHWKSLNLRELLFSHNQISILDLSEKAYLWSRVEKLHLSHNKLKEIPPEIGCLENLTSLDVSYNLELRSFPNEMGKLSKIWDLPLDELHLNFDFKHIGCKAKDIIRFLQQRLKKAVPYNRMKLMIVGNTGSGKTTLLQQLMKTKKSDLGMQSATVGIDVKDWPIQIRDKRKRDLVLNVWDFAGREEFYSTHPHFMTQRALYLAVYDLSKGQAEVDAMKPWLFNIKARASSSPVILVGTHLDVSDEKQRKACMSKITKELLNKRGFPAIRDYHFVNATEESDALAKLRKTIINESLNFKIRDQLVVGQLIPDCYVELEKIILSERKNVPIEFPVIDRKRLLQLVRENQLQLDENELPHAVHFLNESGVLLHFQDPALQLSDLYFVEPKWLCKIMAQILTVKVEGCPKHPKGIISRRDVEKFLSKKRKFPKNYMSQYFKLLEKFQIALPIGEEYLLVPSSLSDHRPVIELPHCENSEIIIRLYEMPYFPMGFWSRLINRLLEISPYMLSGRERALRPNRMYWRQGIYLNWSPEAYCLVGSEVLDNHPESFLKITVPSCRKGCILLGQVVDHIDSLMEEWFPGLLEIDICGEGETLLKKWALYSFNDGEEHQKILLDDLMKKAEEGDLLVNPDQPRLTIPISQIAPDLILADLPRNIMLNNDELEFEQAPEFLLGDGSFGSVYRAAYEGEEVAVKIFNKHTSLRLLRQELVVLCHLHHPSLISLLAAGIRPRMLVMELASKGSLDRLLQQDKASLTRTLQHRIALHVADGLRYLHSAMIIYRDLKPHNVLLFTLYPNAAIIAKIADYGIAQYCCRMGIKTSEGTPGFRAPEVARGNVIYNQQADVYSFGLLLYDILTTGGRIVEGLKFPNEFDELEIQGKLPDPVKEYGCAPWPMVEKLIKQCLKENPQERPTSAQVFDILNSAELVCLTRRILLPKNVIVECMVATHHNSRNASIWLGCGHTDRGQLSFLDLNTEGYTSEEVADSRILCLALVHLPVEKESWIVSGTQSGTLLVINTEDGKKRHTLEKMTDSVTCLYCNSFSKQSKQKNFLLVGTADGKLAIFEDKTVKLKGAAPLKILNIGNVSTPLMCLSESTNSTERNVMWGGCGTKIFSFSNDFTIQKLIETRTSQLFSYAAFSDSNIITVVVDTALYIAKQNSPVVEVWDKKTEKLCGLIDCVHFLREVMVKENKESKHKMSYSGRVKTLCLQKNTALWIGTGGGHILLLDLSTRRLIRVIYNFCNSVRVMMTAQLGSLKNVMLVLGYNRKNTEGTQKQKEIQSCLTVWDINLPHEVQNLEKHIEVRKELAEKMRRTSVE
Sequence of Dual specificity mitogen-activated protein kinase kinase 2 (P36507 whole entry): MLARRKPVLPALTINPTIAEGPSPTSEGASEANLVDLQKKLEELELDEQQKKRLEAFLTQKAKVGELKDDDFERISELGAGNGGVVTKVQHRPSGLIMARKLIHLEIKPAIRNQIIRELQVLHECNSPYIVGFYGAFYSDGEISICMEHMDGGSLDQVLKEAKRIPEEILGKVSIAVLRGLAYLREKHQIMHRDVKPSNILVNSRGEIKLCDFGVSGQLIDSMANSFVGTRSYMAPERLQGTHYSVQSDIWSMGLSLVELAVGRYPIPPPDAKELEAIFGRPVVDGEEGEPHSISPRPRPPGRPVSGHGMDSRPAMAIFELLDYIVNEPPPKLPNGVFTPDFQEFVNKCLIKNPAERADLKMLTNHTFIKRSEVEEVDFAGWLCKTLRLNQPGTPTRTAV
Sequence of Dual specificity mitogen-activated protein kinase kinase 1 (Q02750 whole entry): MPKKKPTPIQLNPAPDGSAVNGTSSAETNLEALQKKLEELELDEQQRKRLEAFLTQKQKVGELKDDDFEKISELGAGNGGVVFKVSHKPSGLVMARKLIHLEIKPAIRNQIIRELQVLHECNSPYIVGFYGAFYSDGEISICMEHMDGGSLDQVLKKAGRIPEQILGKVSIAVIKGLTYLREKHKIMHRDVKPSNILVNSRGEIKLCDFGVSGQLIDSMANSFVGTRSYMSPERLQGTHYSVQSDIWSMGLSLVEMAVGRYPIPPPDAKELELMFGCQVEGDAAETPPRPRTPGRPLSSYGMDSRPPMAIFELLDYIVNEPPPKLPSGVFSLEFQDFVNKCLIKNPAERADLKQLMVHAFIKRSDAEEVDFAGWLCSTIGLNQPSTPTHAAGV
Sequence of G protein-coupled receptor kinase 5 (P34947 whole entry): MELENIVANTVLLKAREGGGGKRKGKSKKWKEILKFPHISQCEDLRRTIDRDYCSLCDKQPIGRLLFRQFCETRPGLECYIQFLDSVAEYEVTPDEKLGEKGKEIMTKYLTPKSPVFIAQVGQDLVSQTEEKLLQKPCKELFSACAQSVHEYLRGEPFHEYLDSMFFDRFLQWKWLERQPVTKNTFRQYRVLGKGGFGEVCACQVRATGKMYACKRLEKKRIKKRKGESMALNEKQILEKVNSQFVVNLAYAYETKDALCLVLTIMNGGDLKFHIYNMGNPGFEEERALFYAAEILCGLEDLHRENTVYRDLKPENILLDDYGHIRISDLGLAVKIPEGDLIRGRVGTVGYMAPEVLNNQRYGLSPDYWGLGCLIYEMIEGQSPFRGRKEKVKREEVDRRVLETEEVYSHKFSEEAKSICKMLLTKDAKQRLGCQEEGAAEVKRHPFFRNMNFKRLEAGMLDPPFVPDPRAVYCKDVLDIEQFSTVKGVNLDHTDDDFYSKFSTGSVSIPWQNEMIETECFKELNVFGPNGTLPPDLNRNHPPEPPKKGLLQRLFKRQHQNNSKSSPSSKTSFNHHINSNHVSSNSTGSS
Sequence of Casein kinase I isoform alpha (P48729 whole entry, canonical isoform): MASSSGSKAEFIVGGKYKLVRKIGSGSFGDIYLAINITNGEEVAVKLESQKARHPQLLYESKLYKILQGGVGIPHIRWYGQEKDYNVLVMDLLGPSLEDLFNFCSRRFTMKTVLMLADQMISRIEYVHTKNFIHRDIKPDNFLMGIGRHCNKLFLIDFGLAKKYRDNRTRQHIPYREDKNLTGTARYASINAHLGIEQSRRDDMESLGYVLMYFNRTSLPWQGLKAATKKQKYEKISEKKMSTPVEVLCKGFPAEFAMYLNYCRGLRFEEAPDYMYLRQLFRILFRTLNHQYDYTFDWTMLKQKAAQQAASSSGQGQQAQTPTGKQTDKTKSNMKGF
Sequence of Glycogen synthase kinase-3 alpha (P49840 whole entry): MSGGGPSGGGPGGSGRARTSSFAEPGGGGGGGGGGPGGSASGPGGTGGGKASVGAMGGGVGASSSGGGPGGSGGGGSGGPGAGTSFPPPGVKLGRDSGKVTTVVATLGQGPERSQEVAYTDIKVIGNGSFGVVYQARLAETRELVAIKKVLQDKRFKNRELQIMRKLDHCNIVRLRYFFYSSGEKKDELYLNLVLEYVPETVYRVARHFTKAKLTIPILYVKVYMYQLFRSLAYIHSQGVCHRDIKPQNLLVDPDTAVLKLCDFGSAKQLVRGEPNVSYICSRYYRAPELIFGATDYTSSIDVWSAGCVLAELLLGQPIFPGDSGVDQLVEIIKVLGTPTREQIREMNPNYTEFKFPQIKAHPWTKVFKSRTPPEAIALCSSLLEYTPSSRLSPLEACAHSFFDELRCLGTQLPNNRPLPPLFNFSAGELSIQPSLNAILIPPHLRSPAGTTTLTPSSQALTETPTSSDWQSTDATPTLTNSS
Sequence of Serine/threonine-protein kinase pim-1 (P11309 whole entry): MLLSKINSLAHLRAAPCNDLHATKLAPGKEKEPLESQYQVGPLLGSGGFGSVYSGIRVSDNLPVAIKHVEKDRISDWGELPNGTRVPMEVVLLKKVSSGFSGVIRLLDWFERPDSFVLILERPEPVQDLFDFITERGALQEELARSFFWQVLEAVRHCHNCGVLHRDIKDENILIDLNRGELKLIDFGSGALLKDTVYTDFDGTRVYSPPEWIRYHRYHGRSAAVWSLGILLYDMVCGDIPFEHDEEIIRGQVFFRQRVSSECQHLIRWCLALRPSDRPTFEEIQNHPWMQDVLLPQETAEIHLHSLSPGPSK

For `NC(=O)c1ccc(-c2nc(-c3ccc4c(c3)OCO4)c(-c3ccccn3)[nH]2)cc1` [SB-431542], the Ki (as a rule, the dissociation constant of the complex between target and ligand, obtained from inhibition or displacement) was > 2 µM (inactive) in assay [1]; 0.1 µM (active) in [2]; > 3.98 µM (inactive) in [3]; > 3.98 µM (inactive) in assay [4]; > 3.16 µM (inactive) in [5]; > 7.94 µM (inactive) in [6]. For the same compound, the Ki in [7] is > 6.31 µM (inactive); in assay [8], > 3.16 µM (inactive); in assay [9] it was > 3.98 µM (inactive); in assay [10], > 2.51 µM (inactive); in assay [11], > 3.98 µM (inactive); in assay [12] it was > 3.16 µM (inactive). Further, the Ki in assay [13] is > 3.16 µM (inactive); in [14], > 2.51 µM (inactive); at Activated CDC42 kinase 1 it was > 3.98 µM (inactive); in [15], > 6.31 µM (inactive); in [16], > 3.98 µM (inactive); in assay [17] it was > 1.58 µM (inactive). Further, the Ki in assay [18] was > 5.01 µM (inactive); in assay [19] it was > 3.98 µM (inactive); in [20], > 3.98 µM (inactive); in assay [21], > 6.31 µM (inactive); in assay [22], > 2.51 µM (inactive); in assay [23] it was > 3.16 µM (inactive).

(Values after ChEMBL document CHEMBL1201862, “PubChem BioAssay data set” (2004).)
